Measured values as given in PMC11087051, “Large-scale deorphanization of Nematostella vectensis neuropeptide G protein-coupled receptors supports the independent expansion of bilaterian and cnidarian peptidergic systems” (eLife, 2024).
Residues, ends and D or L forms follow the SMILES beside them. No end group written: not given here.

What was measured:
QGRFa.R070 (R70, GPR70) = experiment: GPCR deorphanization dose-response assay (HEK293, G5A luminescence); type: cell-based, Nematostella vectensis; conditions: drc fit
Method: (§1) To experimentally identify Nematostella neuropeptide GPCRs, we tested our selection of 161 N. vectensis GPCRs in a pharmacological assay for activation by peptides from our peptide library (Figure 3A, Supplementary files 3 and 8). We expressed the candidate GPCRs in mammalian cells, together with a promiscuous Gqi protein and a luminescent G5A reporter (Figure 3A, Supplementary file 7). The peptides were separated into different mixes (Supplementary file 3), which were then tested on each GPCR (Supplementary file 4). Receptor-mix combinations that gave a positive signal were further resolved by testing the individual peptides of the mix to identify the activating ligand (Supplementary file 4). […]
(§2) A detailed step-by-step protocol has been published in [Thiel et al., 2023]. […] For each well, 10 µl OptiMEM (without FBS), 70 ng of GPCR containing plasmid, 70 ng of Gqi5/9 plasmid, 10–20 ng of G5A plasmid (to increase luminescence values of our HEK293 cell line), and 0.45–0.48 µl T5000/PEI were mixed and incubated for 20 min at room temperature. […] Readings were performed with a FlexStation 3 Multi-mode Microplate reader (Molecular Devices), for a period of 60 s per well, ligand injection after 15–18 s, and the whole plate was read with the Flex option. […] The readout data for the final dose-response curves is provided in Supplementary file 9 and as .csv files in the repository in the data folder. […]

[1] = test system: QITRFa.R196 (R196, GPR196); experiment: as above; type: cell-based, Nematostella vectensis; conditions: drc fit
Method: as §1, §2

[2] = Maximal solubility of the synthetic peptides in water and in DMSO (sheet Peptide_mixes); type: physicochemical; conditions: for max solve (DMSO): in DMSO, number in brackets in the cell; for max solve water: in water, number before the bracket in the cell
Text: Supplement elife-90674-supp3.xlsx, sheet "Peptide_mixes"

Row | Molecule | Slope of the dose-response curve (QGRFa.R070 (R70, GPR70)) | Slope of the dose-response curve [1] | max solve (DMSO) [2] | max solve water [2]
1 | pyrQITRFamide [synthetic N. vectensis RFamide neuropeptide pyrQITRFamide] | -1.343 | -0.6635 | – | –
2 | C[C@@H](O)[C@H](NC(=O)[C@H](Cc1c[nH]cn1)NC(=O)[C@H](Cc1ccccc1)NC(=O)[C@H](Cc1ccc(O)cc1)NC(=O)[C@@H]1CCCN1C(=O)[C@@H]1CCC(=O)N1)C(=O)N[C@@H](CC(=O)O)C(=O)N[C@@H](CC(N)=O)C(=O)N[C@@H](CO)C(=O)N1CCC[C@H]1C(=O)N[C@@H](CC(N)=O)C(=O)N[C@@H](CCCNC(=N)N)C(=O)N[C@@H](Cc1ccccc1)C(N)=O [NRFa] (HELM PEPTIDE1{[Glp].P.Y.F.H.T.D.N.S.P.N.R.F.[am]}$$$$V2.0) | – | – | 5 (5) mg/ml | 5 (5) mg/ml
3 | CC(C)C[C@H](NC(=O)CNC(=O)CNC(=O)[C@@H]1CCC(=O)N1)C(=O)N[C@@H](CCCNC(=N)N)C(=O)N[C@@H](Cc1c[nH]c2ccccc12)C(N)=O [LRWa2] (HELM PEPTIDE1{[Glp].G.G.L.R.W.[am]}$$$$V2.0) | – | – | 10 mg/mL | 5 mg/mL
4 | CC(C)C[C@H](NC(=O)[C@H](CCCNC(=N)N)NC(=O)[C@@H](NC(=O)[C@H](CC(N)=O)NC(=O)[C@H](C)NC(=O)[C@H](CCCCN)NC(=O)[C@@H]1CSSC[C@H](NC(=O)[C@H](Cc2c[nH]cn2)NC(=O)CNC(=O)[C@H](CC(N)=O)NC(=O)[C@@H]2CCC(=O)N2)C(=O)N2CCC[C@H]2C(=O)N2CCC[C@H]2C(=O)NCC(=O)N[C@@H](CC(C)C)C(=O)N[C@@H](Cc2c[nH]c3ccccc23)C(=O)N[C@@H](CC(C)C)C(=O)N1)[C@@H](C)O)C(=O)O [GLWLcc] (HELM PEPTIDE1{[Glp].N.G.H.C.P.P.G.L.W.L.C.K.A.N.T.R.L}$PEPTIDE1,PEPTIDE1,5:R3-12:R3$$$V2.0) | – | – | 5 (5) mg/ml | 5 (5) mg/ml
5 | NPPIDLGPAYFHIR-NH2 [HIRa5] | – | – | 10 mg/mL | 5 mg/mL
6 | CC(C)C[C@H](NC(=O)[C@H](CCCNC(=N)N)NC(=O)[C@@H](NC(=O)[C@H](CC(N)=O)NC(=O)[C@H](C)NC(=O)[C@H](CCCCN)NC(=O)[C@H](CS)NC(=O)[C@H](CC(C)C)NC(=O)[C@H](Cc1c[nH]c2ccccc12)NC(=O)[C@H](CC(C)C)NC(=O)CNC(=O)[C@@H]1CCCN1C(=O)[C@@H]1CCCN1C(=O)[C@H](CS)NC(=O)[C@H](Cc1c[nH]cn1)NC(=O)CNC(=O)[C@H](CC(N)=O)NC(=O)[C@@H]1CCC(=O)N1)[C@@H](C)O)C(=O)O [GLWL] (HELM PEPTIDE1{[Glp].N.G.H.C.P.P.G.L.W.L.C.K.A.N.T.R.L}$$$$V2.0) | – | – | 10 mg/mL | 5 mg/mL
7 | APRGGRSLLDLLAAPRG-NH2 [PRGa1] | – | – | 10 (10) mg/ml | 10 (10) mg/ml
8 | EIQPGNMKVWSDPF [PNX14] | – | – | 10 mg/mL | 5 mg/mL
9 | SPPQWKLDSSPPQW [QW3] | – | – | 10 mg/mL | 5 mg/mL
10 | GPRGGRATEFGPRG-NH2 [PRGa3] | – | – | 10 (10) mg/ml | 10 (10) mg/ml
11 | NPPQPPFRIPI-NH2 [IPIa] | – | – | 10 mg/mL | 5 mg/mL
12 | CC[C@H](C)[C@H](NC(=O)[C@H](Cc1c[nH]cn1)NC(=O)[C@H](Cc1ccccc1)NC(=O)[C@H](Cc1ccc(O)cc1)NC(=O)[C@H](C)NC(=O)[C@@H]1CCCN1C(=O)CNC(=O)[C@H](CC(C)C)NC(=O)[C@H](CC(=O)O)NC(=O)[C@H](CC(C)C)NC(=O)[C@@H]1CCCN1C(=O)[C@@H]1CCCN1C(=O)[C@@H]1CCC(=O)N1)C(=O)N[C@@H](CCCNC(=N)N)C(N)=O [HIRa4] (HELM PEPTIDE1{[Glp].P.P.L.D.L.G.P.A.Y.F.H.I.R.[am]}$$$$V2.0) | – | – | 10 mg/mL | 5 mg/mL
13 | SPWSYSLRP-NH2 [LRPa2] | – | – | 10 (10) mg/ml | 10 (10) mg/ml
14 | N=C(N)NCCC[C@H](NC(=O)CNC(=O)[C@H](CCC(N)=O)NC(=O)[C@H](CC(=O)O)NC(=O)[C@H](CCC(=O)O)NC(=O)[C@H](CCCNC(=N)N)NC(=O)CNC(=O)[C@H](Cc1ccccc1)NC(=O)[C@H](CCCNC(=N)N)NC(=O)CNC(=O)[C@@H]1CCC(=O)N1)C(=O)N[C@@H](Cc1ccccc1)C(N)=O [RFa1] (HELM PEPTIDE1{[Glp].G.R.F.G.R.E.D.Q.G.R.F.[am]}$$$$V2.0) | – | – | 10 mg/mL | 5 mg/mL
15 | CC(C)C[C@H](NC(=O)CNC(=O)[C@@H]1CCC(=O)N1)C(=O)N[C@@H](CCCNC(=N)N)C(=O)N[C@@H](Cc1c[nH]c2ccccc12)C(N)=O [LRWa1] (HELM PEPTIDE1{[Glp].G.L.R.W.[am]}$$$$V2.0) | – | – | 5 mg/mL | 0 mg/mL
16 | CC(C)C[C@H](NC(=O)[C@H](Cc1ccccc1)NC(=O)[C@H](C)NC(=O)[C@H](CC(=O)O)NC(=O)[C@@H]1CCC(=O)N1)C(=O)N1CCC[C@H]1C(=O)N[C@@H](CCCCN)C(=O)N1CCC[C@H]1C(=O)N[C@@H](CCCNC(=N)N)C(=O)N1CCC[C@H]1C(N)=O [RPa1] (HELM PEPTIDE1{[Glp].D.A.F.L.P.K.P.R.P.[am]}$$$$V2.0) | – | – | 10 (10) mg/ml | 10 (10) mg/ml
17 | CSCC[C@H](NC(=O)[C@H](CC(N)=O)NC(=O)[C@@H]1CCCN1C(=O)[C@H](CCSC)NC(=O)[C@@H]1CCC(=O)N1)C(=O)N[C@H](C(=O)N1CCC[C@H]1C(=O)N[C@@H](Cc1ccccc1)C(=O)N[C@@H](Cc1c[nH]cn1)C(N)=O)C(C)C [PFHa] (HELM PEPTIDE1{[Glp].M.P.N.M.V.P.F.H.[am]}$$$$V2.0) | – | – | 10 mg/mL | 0 mg/mL
18 | CC[C@H](C)[C@H](NC(=O)[C@H](CC(C)C)NC(=O)[C@@H]1CCC(=O)N1)C(=O)N[C@@H](Cc1ccccc1)C(=O)N[C@@H](CCCNC(=N)N)C(=O)N1CCC[C@H]1C(N)=O [FRPa] (HELM PEPTIDE1{[Glp].L.I.F.R.P.[am]}$$$$V2.0) | – | – | 10 mg/mL | 5 mg/mL
19 | SPKPPGLW-NH2 [GLWa5] | – | – | 10 (10) mg/ml | 10 (10) mg/ml
20 | FPPGFHRP-NH2 [HRPa] | – | – | 10 mg/mL | 5 mg/mL
21 | GPRGGRSYDGPRG-NH2 [PRGa4] | – | – | 10 mg/mL | 5 mg/mL
22 | CSCC[C@H](NC(=O)[C@H](C)NC(=O)[C@@H]1CCC(=O)N1)C(=O)N[C@@H](CCC(N)=O)C(=O)N[C@@H](Cc1c[nH]c2ccccc12)C(=O)NCC(=O)N[C@@H](Cc1c[nH]cn1)C(=O)N[C@@H](CCCCN)C(=O)NCC(=O)N[C@@H](Cc1c[nH]c2ccccc12)C(=O)N[C@@H](C)C(=O)O [GWA1] (HELM PEPTIDE1{[Glp].A.M.Q.W.G.H.K.G.W.A}$$$$V2.0) | – | – | 10 mg/mL | 0 mg/mL
23 | TPPSNI-NH2 [SNIa] | – | – | 5 mg/mL | 2 mg/mL
24 | KGIKQEEIQPGNMKVWSDPF [PNX20] | – | – | 10 mg/mL | 5 mg/mL
25 | CC[C@H](C)[C@H](NC(=O)[C@H](CC[S+](C)[O-])NC(=O)[C@@H]1CCCN1C(=O)[C@@H]1CCCN1C(=O)CN)C(=O)N[C@@H](CCCCN)C(=O)N[C@H](C(=O)N1CCC[C@H]1C(=O)N[C@H](C(=O)N[C@@H](CCCNC(=N)N)C(=O)N[C@@H](Cc1c[nH]cn1)C(N)=O)C(C)C)[C@@H](C)CC (some centres unmarked) [RHa2] (HELM PEPTIDE1{G.P.P.[CS(=O)CC[C@H](N[*:1])C(=O)[*:2]].I.K.I.P.V.R.H.[am]}$$$$V2.0) | – | – | 10 mg/mL | 5 mg/mL
